The compounds below were run on recombinant NL4-3 virus (Renilla luciferase in nef, Gag P373S; NLRluc) in MT-2 cells (assay: whole plant or invertebrate). Details: Renilla, NL43, luciferase activity in cells infected for 4-5 days with NLRluc recombinants, serial dilutions of inhibitor; class symbols (key in Table 1); read-out: EC50.
Assay type: cell-based, HIV
Outline: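 First, reporter virus was generated in 293T cells and titered on MT-2 cells. Next, MT-2 cells were infected in the presence of serial compound dilutions for 4-5 days. Finally, cells were lysed and luciferase activity was measured to quantify inhibition.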
`C=C(C)[C@@H]1CC[C@]2(NC(=O)Cc3cnccn3)CC[C@]3(C)[C@H](CC[C@@H]4[C@@]5(C)CC=C(c6ccc(C(=O)O)cc6)C(C)(C)[C@@H]5CC[C@]43C)[C@@H]12` [Example 102, 4-((1R,3aS,5aR,5bR,7aR,11aS,11bR,13aR,13bR)-5a,5b,8,8,11a-pentamethyl-1-(prop-1-en-2-yl)-3a-(2-(pyrazin-2-yl)acetamido)-2,3,3a,4,5,5a,5b,6,7,7a,8,11,11a,11b,12,13,13a,13b-octadecahydro-1H-cyclopenta[a]chrysen-9-yl)benzoic acid] was tested, and the EC50 was < 100 nM.
`C=C(C)[C@@H]1CC[C@]2(NC(=O)Cn3cnnn3)CC[C@]3(C)[C@H](CC[C@@H]4[C@@]5(C)CC=C(c6ccc(C(=O)O)cc6)C(C)(C)[C@@H]5CC[C@]43C)[C@@H]12` [Example 103, 4-((1R,3aS,5aR,5bR,7aR,11aS,11bR,13aR,13bR)-3a-(2-(1H-tetrazol-1-yl)acetamido)-5a,5b,8,8,11a-pentamethyl-1-(prop-1-en-2-yl)-2,3,3a,4,5,5a,5b,6,7,7a,8,11,11a,11b,12,13,13a,13b-octadecahydro-1H-cyclopenta[a]chrysen-9-yl)benzoic acid] was tested, and the EC50 was < 100 nM.
`C=C(C)[C@@H]1CC[C@]2(NC(=O)CN3C(=O)OCc4ccc(Cl)cc43)CC[C@]3(C)[C@H](CC[C@@H]4[C@@]5(C)CC=C(c6ccc(C(=O)O)cc6)C(C)(C)[C@@H]5CC[C@]43C)[C@@H]12` [Example 104, 4-((1R,3aS,5aR,5bR,7aR,11aS,11bR,13aR,13bR)-3a-(2-(7-chloro-2-oxo-2,4-dihydro-1H-benzo[d][1,3]oxazin-1-yl)acetamido)-5a,5b,8,8,11a-pentamethyl-1-(prop-1-en-2-yl)-2,3,3a,4,5,5a,5b,6,7,7a,8,11,11a,11b,12,13,13a,13b-octadecahydro-1H-cyclopenta[a]chrysen-9-yl)benzoic acid] was tested, and the EC50 was < 100 nM.
`C=C(C)[C@@H]1CC[C@]2(NC(=O)CN3CCOC3=O)CC[C@]3(C)[C@H](CC[C@@H]4[C@@]5(C)CC=C(c6ccc(C(=O)O)cc6)C(C)(C)[C@@H]5CC[C@]43C)[C@@H]12` [Example 105, 4-((1R,3aS,5aR,5bR,7aR,11aS,11bR,13aR,13bR)-5a,5b,8,8,11a-pentamethyl-3a-(2-(2-oxooxazolidin-3-yl)acetamido)-1-(prop-1-en-2-yl)-2,3,3a,4,5,5a,5b,6,7,7a,8,11,11a,11b,12,13,13a,13b-octadecahydro-1H-cyclopenta[a]chrysen-9-yl)benzoic acid] was tested, and the EC50 was < 100 nM.
In the case of `C=C(C)[C@@H]1CC[C@]2(NC(=O)CNCCO)CC[C@]3(C)[C@H](CC[C@@H]4[C@@]5(C)CC=C(c6ccc(C(=O)O)cc6)C(C)(C)[C@@H]5CC[C@]43C)[C@@H]12` [Example 106, 4-((1R,3aS,5aR,5bR,7aR,11aS,11bR,13aR,13bR)-3a-(2-(2-hydroxyethylamino)acetamido)-5a,5b,8,8,11a-pentamethyl-1-(prop-1-en-2-yl)-2,3,3a,4,5,5a,5b,6,7,7a,8,11,11a,11b,12,13,13a,13b-octadecahydro-1H-cyclopenta[a]chrysen-9-yl)benzoic acid], the EC50 is reported as < 100 nM.
With `C=C(C)[C@@H]1CC[C@]2(NC(=O)CN3C(=O)OC[C@@H]3c3ccccc3)CC[C@]3(C)[C@H](CC[C@@H]4[C@@]5(C)CC=C(c6ccc(C(=O)O)cc6)C(C)(C)[C@@H]5CC[C@]43C)[C@@H]12` [Example 107, 4-((1R,3aS,5aR,5bR,7aR,11aS,11bR,13aR,13bR)-5a,5b,8,8,11a-pentamethyl-3a-(2-((S)-2-oxo-4-phenyloxazolidin-3-yl)acetamido)-1-(prop-1-en-2-yl)-2,3,3a,4,5,5a,5b,6,7,7a,8,11,11a,11b,12,13,13a,13b-octadecahydro-1H-cyclopenta[a]chrysen-9-yl)benzoic acid] the EC50 was < 100 nM.
